# US20010048942A1, “Dutasteride to prevent and treat atherosclerosis” (priority 2000, published 2001)
# Test system: patients of the practice
# Test: second study: questionnaire on cardiac events in patients of the practice treated with finasteride vs control group
# Assay type: in vivo, human
# Conditions: 4 events over 242 patient-years; control 3.5%/yr.
# Experimental: Finasteride was being administered at a dosage of a single oral 5 mg tablet a day. This is the same tablet used in treatment of BPH as disclosed in U.S. Pat. No. 5,175,155 and such dosage applies in the present invention. However, use of a 2 mg or 10 mg oral tablet is contemplated.
# Two studies were undertaken to determine whether finasteride was, in fact, effective in lessening the incidence of heart disease and other complications of atherosclerosis.
# In the second study patients of the practice were given a questionnaire. Various patients had been treated with finasteride for varying lengths of time. Only those on the drug for at least one year were considered. The average time on finasteride was 3 years. The number of cardiac events occurring in the patients taking finasteride was only 4 events over 242 patient-years. (1.6%/yr.) In the control group 26 events occurred in the 3 years prior over 732 patient-years. (3.5%/yr.)
# The […] observed in cardiac events is believed to be significant. (90% Cl equal to 1.4% to 3.7%)
smiles,measurement,value
"CC(C)(C)NC(=O)[C@H]1CC[C@H]2[C@@H]3CC[C@H]4NC(=O)C=C[C@]4(C)[C@H]3CC[C@]12C [finasteride, 4-azaandrost-1-ene-17-carboxamide, N-(1,1-dimethylethyl)-3-oxo-(5a 17B)-]",cardiac events per patient-year,1.6 %/yr.
